Results reported in paper PMC11286589, “Population pharmacokinetics and exposure–response analyses of SAF-189s in Chinese patients with ALK+/ROS1+ non-small cell lung cancer” (Frontiers in Pharmacology, 2024).

How the values were obtained:
[1] = Exposure–safety analysis (logistic regression); format: in vivo, human; conditions: per increase in exposure (AUCss) of 1 ng∙h mL^–1 d^–1, all patients
Method: All studies were conducted in accordance with the Good Clinical Practice guidelines and Declaration of Helsinki. The protocols were approved by the independent ethics committee of each investigation site, and all subjects provided informed consent. The tumor responses were assessed by the IRC based on the Response Evaluation Criteria in Solid Tumors (RECIST) 1.1 conditions. The exposure–efficacy analyses of SAF-189s were conducted based on data from patients in the SAF001 study to explore the relationships between systemic exposure and efficacy endpoints, including the ORR, PFS, and duration of response (DOR). The exposure–safety analyses of SAF-189s were conducted based on data from patients in the SAF001 study to explore the relationships between the systemic exposure and safety endpoints, including the adverse events (AEs) of interest. In these studies, the SAF-189s plasma concentrations were analyzed using validated liquid chromatography tandem mass spectrometry within the assay range of 0.5–150 ng mL^–1.
The exposure–safety relationships were characterized using the exposure metrics to the first occurrence of an event. The AEs of interest selected for analysis included hyperglycemia and proteinuria. The individual post hoc PK parameters from the final PopPK model and the first dosage were used to calculate the Cmin,ss, Cmax,ss, and AUCss at steady state, which were used as the exposure metrics. The exposure–safety analysis was performed using a logistic regression modeling approach.

[2] = test system: ALK+/ROS1+ advanced NSCLC; test: Phase I/II study (SAF001, NCT04237805): tumor response, IRC, RECIST 1.1; format: in vivo, human
Excerpt: A first-in-human phase I/II study (NCT04237805) enrolled patients with advanced ALK+/ROS1+ NSCLC with or without asymptomatic CNS metastases. […] The population PK analysis included data from one phase I study of SAF-189s conducted with healthy subjects (study STL31147; n = 24) and one phase I/II study conducted with Chinese patients having ALK+/ROS1+ advanced NSCLC (study SAF001; n = 299). STL31147 was a single-center, randomized, open-label, two-period (fed and fasting), and two-sequence crossover study on healthy Chinese adults. The volunteers received SAF-189s at a dose of 160 mg orally once in each period, with a washout period of 14 days. Blood samples (3 mL) were collected after each SAF-189s administration at 0 (predose), 1, 2, 3, 4, 6, 8, 10, 12, 24, 48, 72, 120, and 168 h post dosing. SAF001 was a multicenter, open-label, and single-arm phase I/II study to evaluate the safety, tolerability, pharmacokinetics, and antitumor activity of SAF-189s in patients with advanced ALK+ NSCLC (phase I) and ALK+/ROS1+ NSCLC (phase II). In the dose escalation portion, the study treatment included a single-agent 3-day PK run-in period and a continuous treatment period. The dosing regimens were 20, 40, 80, 120, 160, and 210 mg QD for 21 days in 21-day cycles during the continuous treatment period. In phase II, the patients received 80, 120, 160, and 210 mg of SAF-189s (phase IIa) or 160 mg (phase IIb) QD over 21-day cycles. All studies were conducted in accordance with the Good Clinical Practice guidelines and Declaration of Helsinki. The protocols were approved by the independent ethics committee of each investigation site, and all subjects provided informed consent. The tumor responses were assessed by the IRC based on the Response Evaluation Criteria in Solid Tumors (RECIST) 1.1 conditions. The exposure–efficacy analyses of SAF-189s were conducted based on data from patients in the SAF001 study to explore the relationships between systemic exposure and efficacy endpoints, including the ORR, PFS, and duration of response (DOR). The exposure–safety analyses of SAF-189s were conducted based on data from patients in the SAF001 study to explore the relationships between the systemic exposure and safety endpoints, including the adverse events (AEs) of interest. In these studies, the SAF-189s plasma concentrations were analyzed using validated liquid chromatography tandem mass spectrometry within the assay range of 0.5–150 ng mL^–1.

## Cc1cc(Nc2ncc(Cl)c(Nc3ccccc3S(=O)(=O)C(C)C)n2)c2c(c1C1CCN(C)CC1)C[C@@H](C)O2 [SAF-189s]
[1]; p < 0.001
  OR for any-grade hyperglycemia: 3.521
  OR for grade ≥2 hyperglycemia: 7.662
[1]; p = 0.021
  OR for proteinuria: 2.031
[2]; 160-mg dose group, ROS1+ treatment-naive patients (n = 59)
  ORR: 89.83%
[2]; ALK+ and ROS1+ patients (n = 244)
  ORR: 78.69%
[2]; ROS1+ treatment-naive subgroup (n = 68)
  ORR: 91.18%
[2]; ROS1+ treatment-resistant patients (n = 32)
  ORR: 40.62%
